According to the supplement of paper PMC8671470:

Experiments:
Details in all cases: 72 h
BV-173 [1] = test system: BV-173
Method in brief: (§1)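 Seeded in RPMI 1640 at densities within the linear growth range, fifteen myeloid leukaemia cell lines were dispensed into 384-well plates with acoustically pre-printed compounds spanning five tenfold doses from 1 to 10,000 nM, in duplicate. The plates were kept for 72 h at 37 °C in 5% CO2 before luminescent ATP viability was measured and normalised to vehicle and to a positive control at 10 µM. Curves were fitted with a four-parameter log-logistic model. The IC50 was taken from those curves.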

HEL [2] = test system: HEL
Method in brief: as §1

HL-60 [3] = test system: HL-60
Method in brief: as §1

K-562 = test system: K-562
Method in brief: as §1

KCL-22 [4] = test system: KCL-22
Method in brief: as §1

KG-1 [5] = test system: KG-1
Method in brief: as §1

KU-812 [6] = test system: KU-812
Method in brief: as §1

LAMA-84 [7] = test system: LAMA-84
Method in brief: as §1

ML-2 [8] = test system: ML-2
Method in brief: as §1

MOLM-13 [9] = test system: MOLM-13
Method in brief: as §1

MV4-11 [10] = test system: MV4-11
Method in brief: as §1

Mono-Mac-6 [11] = test system: Mono-Mac-6
Method in brief: as §1

NOMO-1 [12] = test system: NOMO-1
Method in brief: as §1

SHI-1 [13] = test system: SHI-1
Method in brief: as §1

THP-1 [14] = test system: THP-1
Method in brief: as §1

BV-173 [15] = assay: cell viability (% survival relative to DMSO control, bortezomib = 0%); higher = less cytotoxic
Method in brief: (§2)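 Fifteen myeloid leukaemia cell lines were exposed to compounds at 1, 10, 100, 1000 or 10000 nM in 384-well plates for 72 h at 37 °C and 5% CO2. Viability was read by CellTiter-Glo luminescence and normalised, with vehicle as 100% and a 10 µM positive control as 0%. Values are percent survival averaged over duplicates.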

HEL [16] = assay: as above
Method in brief: as §2

HL-60 [17] = assay: as above
Method in brief: as §2

KCL-22 [18] = assay: as above
Method in brief: as §2

KG-1 [19] = assay: as above
Method in brief: as §2

KU-812 [20] = assay: as above
Method in brief: as §2

LAMA-84 [21] = assay: as above
Method in brief: as §2

ML-2 [22] = assay: as above
Method in brief: as §2

MOLM-13 [23] = assay: as above
Method in brief: as §2

MV4-11 [24] = assay: as above
Method in brief: as §2

Mono-Mac-6 [25] = assay: as above
Method in brief: as §2

NOMO-1 [26] = assay: as above
Method in brief: as §2

SHI-1 [27] = assay: as above
Method in brief: as §2

THP-1 [28] = assay: as above
Method in brief: as §2

HL-60 [29] = assay: area under dose-response curve (viability, 1 nM-10 uM) (fraction (0-1)); higher = more sensitive
Method in brief: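 In 384-well plates, the full library was rescreened in duplicate on HL-60 cells in RPMI 1640 with 10% FBS, at 1–10,000 nM in five tenfold concentrations, for 72 h at 37 °C, 5% CO2. Each run also held DMSO or 100 nM of one of three metabolic inhibitors. Viability was measured by CellTiter-Glo and normalised to DMSO wells and to wells with proteasome inhibitor, present at 10 μM. Any area under the curve comes from four-parameter log-logistic fitting with drc and PharmacoGx.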

CCCc1cc(-c2nc(-c3ccc(C)cc3)cs2)ccn1 [Fatostatin]
Details	IC50 (cell viability) [µM]
BV-173 [1]	6.07
HEL [2]	> 10
HL-60 [3]	8.84
K-562	> 10
KCL-22 [4]	> 10
KG-1 [5]	2.76
KU-812 [6]	> 10
LAMA-84 [7]	> 10
ML-2 [8]	6.69
MOLM-13 [9]	> 10
MV4-11 [10]	> 10
Mono-Mac-6 [11]	> 10
NOMO-1 [12]	> 10
SHI-1 [13]	4.85
THP-1 [14]	> 10

Details	area under dose-response curve, co-treatment: AZD3965 100 nM	area under dose-response curve, co-treatment: DMSO vehicle	area under dose-response curve, co-treatment: GSK2194069 100 nM	area under dose-response curve, co-treatment: pictilisib 100 nM	cell viability, 1 nM [%]	cell viability, 10 nM [%]	cell viability, 100 nM [%]	cell viability, 1000 nM [%]	cell viability, 10000 nM [%]
BV-173 [15]	–	–	–	–	90.6	98.4	94.9	112	24.8
HEL [16]	–	–	–	–	92.6	97.8	92.1	108	90.4
HL-60 [17]	–	–	–	–	110	84.6	95.5	105	43.1
HL-60 [29]	< 0.0301	< 0.0301	0.0533	0.0342	–	–	–	–	–
KCL-22 [18]	–	–	–	–	98.3	86.2	92.5	113	55.3
KG-1 [19]	–	–	–	–	102	99.8	106	90.3	23.1
KU-812 [20]	–	–	–	–	100	101	87.2	106	74.1
LAMA-84 [21]	–	–	–	–	105	92.2	104	109	79.8
ML-2 [22]	–	–	–	–	93.4	101	92	111	29.5
MOLM-13 [23]	–	–	–	–	89.2	78.1	106	108	104
MV4-11 [24]	–	–	–	–	105	95.9	93.2	98.2	65.7
Mono-Mac-6 [25]	–	–	–	–	94.5	97.3	101	111	87.8
NOMO-1 [26]	–	–	–	–	98.3	91.3	104	111	97.4
SHI-1 [27]	–	–	–	–	106	91.7	105	114	14.4
THP-1 [28]	–	–	–	–	95.2	90.1	108	98.5	81.1

Oc1ccc(Nc2nc(-c3ccc(Cl)cc3)cs2)cc1 [SKI II]
Details	IC50 (cell viability) [µM]
BV-173 [1]	1.54
HEL [2]	3.22
HL-60 [3]	2.26
K-562	2.51
KCL-22 [4]	3.07
KG-1 [5]	3.93
KU-812 [6]	2.9
LAMA-84 [7]	6.79
ML-2 [8]	5.58
MOLM-13 [9]	8.97
MV4-11 [10]	3.2
Mono-Mac-6 [11]	4.12
NOMO-1 [12]	> 10
SHI-1 [13]	> 10
THP-1 [14]	2.48

Details	area under dose-response curve, co-treatment: AZD3965 100 nM	area under dose-response curve, co-treatment: DMSO vehicle	area under dose-response curve, co-treatment: GSK2194069 100 nM	area under dose-response curve, co-treatment: pictilisib 100 nM	cell viability, 1 nM [%]	cell viability, 10 nM [%]	cell viability, 100 nM [%]	cell viability, 1000 nM [%]	cell viability, 10000 nM [%]
BV-173 [15]	–	–	–	–	104	98.3	96.7	70.5	0.732
HEL [16]	–	–	–	–	102	109	111	95.5	5.26
HL-60 [17]	–	–	–	–	88.9	110	97.7	77.7	11.2
HL-60 [29]	0.0929	0.0805	0.0628	0.151	–	–	–	–	–
KCL-22 [18]	–	–	–	–	94.5	107	109	92.1	25.7
KG-1 [19]	–	–	–	–	98	103	97.2	81.7	32.7
KU-812 [20]	–	–	–	–	95.5	101	106	90.8	20.6
LAMA-84 [21]	–	–	–	–	105	99.9	96.1	96.4	34.2
ML-2 [22]	–	–	–	–	93.8	97.2	99.3	89.7	44
MOLM-13 [23]	–	–	–	–	80	104	110	106	44.3
MV4-11 [24]	–	–	–	–	97.2	99.2	114	95.9	4.54
Mono-Mac-6 [25]	–	–	–	–	99.2	97.8	100	93.5	14.3
NOMO-1 [26]	–	–	–	–	97.3	104	104	99.3	66.1
SHI-1 [27]	–	–	–	–	94.9	97.8	99.7	96	53.3
THP-1 [28]	–	–	–	–	100	96.8	103	86.4	8.38
